Entries after “also recorded” stand apart in the source; their conditions may differ.
Tests used:
Format in all cases: in vivo, rabbit
[1] = system: myocardial ischemia-reperfusion injury; experiment: Myocardial infarct size following ischemia and reperfusion (30 min LAD occlusion, 3 h reperfusion)
Procedure: These experiments were designed to characterize the effects of different HVAs (enflurane, isoflurane, sevoflurane, and desflurane) administered intravenously in an emulsion on myocardial infarct size following ischemia and reperfusion in rabbits.
(§1) Male New Zealand white rabbits weighing between 2.5 and 3.0 kg were anesthetized with intravenous sodium pentobarbital (30 mg/kg). Additional doses of pentobarbital were titrated as required to assure that pedal and palpebral reflexes were absent throughout the experiment. A tracheotomy was performed through a ventral midline incision, and the trachea was cannulated. The rabbits were ventilated with positive pressure using an air-oxygen mixture (FiO2=0.33). Arterial blood gas tensions and acid-base status were maintained within a normal physiological range (pH 7.35-7.45, PaCO2 25-40 mmHg, and PaO2 90-150 mmHg) by adjusting the respiratory rate or tidal volume. Body temperature was maintained with a heating blanket. Heparin-filled catheters were inserted into the right carotid artery and the left jugular vein for measurement of arterial blood pressure and fluid or drug administration, respectively. Maintenance fluids consisted of 0.9% saline (15 ml/kg/h) that were continued for the duration of the experiment.
(§2) A left thoracotomy was performed at the fourth intercostal space, and the heart was suspended in a pericardial cradle. A prominent branch of the left anterior descending coronary artery (LAD) was selected, and a silk ligature was placed around this artery approximately halfway between the base and apex for the production of coronary artery occlusion and reperfusion in myocardial infarct size experiments. Each rabbit was anticoagulated with 500 U of heparin immediately before LAD occlusion. Coronary artery occlusion was verified by the presence of epicardial cyanosis and regional dyskinesia in the ischemic zone, and reperfusion was confirmed by observing an epicardial hyperemic response. Hemodynamics were continuously recorded on a polygraph throughout experimentation. After the surgical preparation, 30 min of stabilization were allowed.
The experimental design for the experiments is illustrated in FIG. 1. Rabbits were randomly assigned to one of six experimental groups: a control group (0.9% saline infusion), a vehicle group (drug lipid vehicle), or one of four anesthetic groups (emulsified desflurane, isoflurane, enflurane, or sevoflurane). The vials of anesthetics were stored at 4° C. as prepared in Example 1. After opening, the vial was left in a water bath at 37° C. for 2 h. Anesthetics were directly poured into the syringe without using negative pressure suction.
(§3) Baseline measurements of systemic hemodynamics, arterial blood gas tensions, and blood concentrations of anesthetic agent were performed 30 min after instrumentation was completed. Rabbits received 0.9% saline, drug lipid vehicle (10 ml/h), or intravenous volatile anesthetic (10 ml/h) for 30 min. Infusions were discontinued 30 min prior to coronary occlusion (memory period). Blood concentrations of anesthetic agents were performed at baseline, at the end of anesthetic infusion, and at the end of the memory period just before coronary occlusion). HVA concentrations in blood were determined by gas chromatographic (GC) analysis. All rabbits underwent a 30 min LAD occlusion followed by 3 h reperfusion.
At the end of each experiment, the LAD was reoccluded and 3 ml of Patent blue dye was injected intravenously. The left ventricular area at risk for infarction was separated from surrounding normal areas (stained blue), and the two regions were incubated at 37° C. for 20 to 30 min in 1% 2,3,5-triphenyltetrazolium chloride in 0.1 M phosphate buffer adjusted to pH 7.4. After overnight storage in 10% formaldehyde, infarcted and noninfarcted myocardium within the area at risk were carefully separated and weighed. Infarct size was expressed as a percentage of the area at risk. […]

[2] = Systemic hemodynamics during infarct experiment
Procedure: as §1, with “Arterial blood gas tensions and acid-base status were maintained within a normal physiological range (pH 7.35-7.45, PaCO2 25-40 mmHg, and PaO2 90-150 mmHg) by adjusting the respiratory rate or tidal volume.” left out
as §2, §3
Statistical analysis of data within and between groups was performed with analysis of variance (ANOVA) for repeated measures followed by Student-Newman-Keuls test. Changes between groups were considered statistically significant when the p value was less than 0.05. All data are expressed as mean±SEM.

[3] = Blood concentration of anesthetics by GC and conversion to MAC-equivalents
Procedure: as §3
Blood concentrations as measured by GC were converted to their MAC-equivalent values by calculations described below. Initially “n”, or the number of moles of HVA in 1 L of alveolar gas during exposure to 1.0 MAC of the HVA was calculated. The ideal gas law n=PV/RT is used to calculate the number of moles of HVA present at 1 MAC in the alveolar gas where: V=1 L, T=273+37=310° (K); and R=0.0821 (universal gas constant). P or pressure was determined taking into account the vapor pressure of water at 37° C. which is 47.1 torr, and the volume percent of the HVA. Volume percentages of HVAs (MAC values) were obtained from literature values determined in rabbits (Scheller et al. Can. J. Anaesth. 1988, 35: 133-136; Drummond, J C Anesthesiology 1985; 62: 336-8, and Doorley et al. Anesthesiology 1988; 69, 89-91), and are presented in Table 8.
The number of moles of the HVA in 1 L at 37° C. at 1 MAC in rabbits was then used to determine the concentration of the HVA present in blood by using known blood/gas partition values (also known as λ). Blood gas partition values for the HVAs used in the study are show in Table 8. The value for “x” (or the equivalent blood concentration of the HVA at 1 MAC at 37° C. in rabbit) is then determined by the equation: x=λn
To express a measured blood concentration of an HVA as a MAC-equivalent value, the measured blood concentration is divided by x. The MAC equivalent values shown in Table 8 were calculated according to the above from the blood concentrations observed (see Table 7).

## FCOC(C(F)(F)F)C(F)(F)F [SEVO, sevoflurane]
[1]; FIGS. 4A, 4B, 5A, 5B
  infarct size plotted as a function of area at risk, versus control regression line: infarcts were smaller than in the control group
[1]; i.v. emulsion prior to coronary artery occlusion
  cardioprotection (protection against myocardial ischemia-reperfusion injury): provided protection against myocardial ischemia-reperfusion injury; also recorded: adequate protection against myocardial ischemia-reperfusion injury; also recorded: significant reduction in the myocardial infarct size
[1]; infarct size as percentage of area at risk, i.v. emulsion 10 ml/h 30 min, stopped 30 min before occlusion
  IF/AAR: 20.5 ± 2.3 %
[1]; infarct weight
  IF WT: 0.19 ± 0.04 g
[2]; Baseline
  MAP: increased
  RPP: 22.9 ± 1.3 bpm × mmHg × 10^3
[2]; Baseline, listed as SEV
  MAP: 92 ± 4 mmHg
[2]; Infusion
  HR: 235 ± 9 bpm
  MAP: increased
  RPP: 23.7 ± 1.7 bpm × mmHg × 10^3
[2]; Infusion, listed as SEV
  MAP: 91 ± 4 mmHg
[2]; Ischemia 30 min
  HR: 214 ± 8 bpm
  MAP: 64 ± 5 mmHg
  RPP: 15.7 ± 1.6 bpm × mmHg × 10^3
[2]; Memory
  HR: 227 ± 11 bpm
  MAP: 87 ± 4 mmHg
  RPP: 22.1 ± 1.8 bpm × mmHg × 10^3
[2]; Reperfusion 1 h
  HR: 206 ± 9 bpm
  MAP: 65 ± 3 mmHg
  RPP: 15.2 ± 1.3 bpm × mmHg × 10^3
[2]; Reperfusion 2 h
  HR: 193 ± 10 bpm
  MAP: 65 ± 3 mmHg
  RPP: 14 ± 1.2 bpm × mmHg × 10^3
[2]; Reperfusion 3 h
  HR: 188 ± 9 bpm
  MAP: 65 ± 2 mmHg
  RPP: 13.8 ± 0.8 bpm × mmHg × 10^3
[2]; i.v. emulsion 10 ml/h for 30 min, Baseline
  HR: 227 ± 7 bpm
[3]; Baseline
  Blood Concentration: 0 µM
[3]; Infusion (end of 30 min, 10 ml/h i.v. infusion)
  Blood Concentration: 150 ± 10 µM
[3]; Memory (30 min after infusion, just before coronary occlusion)
  Blood Concentration: 20 ± 0 µM
[3]; i.v. emulsion
  Observed Blood Concentration following 30 min, 10 mL/h Infusion: 0.15 mM
[3]; measured blood concentration divided by x
  Observed Blood Concentration following 30 min, 10 mL/h Infusion: 0.16 MAC-Equivalents

Source: patent publication US7999011B2, “Method for cardioprotection and neuroprotection by intravenous administration of halogenated volatile anesthetics” (Baxter International Inc., priority 2002, dated 2011)
